Measured values reported in patent US8247211B2, “Glycopeptide antibiotics” (American Cyanamid Company, priority 2001, dated 2012).
≈ marks a conversion by molar mass, not a printed value.

What was measured:
Assay in all cases: In vitro antibacterial evaluation: minimum inhibitory concentration (MIC), broth dilution method
Type in all cases: cell-based
Enterococcus sp. = details: broth dilution, 5×10^5 CFU/mL, 18 hours at 35° C.
Method in brief: (§1)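 NCCLS M7-A2 broth dilution with Mueller-Hinton II, testing 64-0.06 μg/mL antibiotic against 5×10^5 CFU/mL inocula. Test strains include recent methicillin-, penicillin- or vancomycin-resistant clinical isolates. MIC is the lowest concentration preventing growth.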

Staphylococcus sp. = details: for MIC Staphylococcus aureus-SMITH (GC 4543): strain GC 4543; for MIC Staphylococcus haemolyticus (GC 4546): strain GC 4546; for MIC Coagulase Negative Staphylococcus (GC 4547): strain GC 4547; for MIC Coagulase Negative Staphylococcus (GC 4548): strain GC 4548; for MIC Coagulase Negative Staphylococcus (GC 4549): strain GC 4549; for MIC Coagulase Negative Staphylococcus (GC 4551): strain GC 4551; for MIC Coagulase Negative Staphylococcus (GC 6257): strain GC 6257
Method in brief: as §1

Streptococcus sp. = details: broth dilution, 5×10^5 CFU/mL, 18 hours at 35° C.
Method in brief: as §1

Escherichia coli = details: 5×10^5 CFU/mL, 18 hours at 35° C.
Method in brief: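 Inoculum: 5×10^5 CFU/mL. Range: 64-0.06 μg/mL. Medium: Muller-Hinton II […]; NCCLS M7-A2 broth dilution. Endpoint: lowest concentration inhibiting growth. Strains include methicillin-, penicillin- and/or vancomycin-resistant clinical isolates.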

[1] = broth dilution, 18 hours at 35° C.

## CC(c1ccccc1)C1NC(=O)CNC(=O)C(CO)NC(=O)C(C(O)C2CNC(=N)N2C2OC(CO)C(O)C(O)C2O)NC(=O)C(C(O)C2CNC(=N)N2)NC(=O)C(Cc2ccc(OC3OC(CO)C(OC4OC(CO)C(O)C5OC(c6ccccc6)OC45)C(O)C3O)cc2)NC1=O (single isomer, unassigned) [Example 104b, Cyclo[glycyl-β-methylphenylalanyl-O-[4-O-(2,3-O-benzylidenehexopyranosyl)hexopyranosyl]-tyrosyl-3(2-iminoimidazolidin-4-yl)seryl-3-(3-hexopyranosyl-2-iminoimidazolidin-4-yl)-serylseryl]]
Enterococcus sp.
  MIC Enterococccus avium (GC 4558): 0.5 µg/mL (≈ 0.361 µM)
  MIC Enterococccus faecalis (ATCC 29212): 0.5 µg/mL (≈ 0.361 µM)
  MIC Enterococccus faecalis (GC 2691): 0.5 µg/mL (≈ 0.361 µM)
  MIC Enterococccus faecalis (GC 3059): 0.5 µg/mL (≈ 0.361 µM)
  MIC Enterococccus faecalis (GC 4552): 0.5 µg/mL (≈ 0.361 µM)
  MIC Enterococccus faecalis (GC 4553): 0.5 µg/mL (≈ 0.361 µM)
  MIC Enterococccus faecalis (GC 4554): 0.5 µg/mL (≈ 0.361 µM)
  MIC Enterococccus faecalis (GC 6189): 0.5 µg/mL (≈ 0.361 µM)
  MIC Enterococccus faecium (GC 2243): 0.5 µg/mL (≈ 0.361 µM)
  MIC Enterococccus faecium (GC 4556): 0.5 µg/mL (≈ 0.361 µM)
  MIC Enterococccus faecium (GC 4557): 0.5 µg/mL (≈ 0.361 µM)
  MIC Enterococcus faecalis (GC 2242): 0.5 µg/mL (≈ 0.361 µM)
Staphylococcus sp.; strain ATCC 29213
  MIC Staphylococcus aureus (ATCC 29213): 0.5 µg/mL (≈ 0.361 µM)
Staphylococcus sp.; strain GC 1131
  MIC Staphylococcus aureus (GC 1131): 0.5 µg/mL (≈ 0.361 µM)
Staphylococcus sp.; strain GC 3051
  MIC Staphylococcus aureus (GC 3051): 0.5 µg/mL (≈ 0.361 µM)
Staphylococcus sp.; strain GC 3053
  MIC Staphylococcus aureus (GC 3053): 0.5 µg/mL (≈ 0.361 µM)
Staphylococcus sp.; strain GC 4541
  MIC Staphylococcus aureus (GC 4541): 0.5 µg/mL (≈ 0.361 µM)
Staphylococcus sp.; strain GC 4542
  MIC Staphylococcus aureus (GC 4542): 0.5 µg/mL (≈ 0.361 µM)
Staphylococcus sp.; 18 hours at 35° C.
  MIC Staphylococcus aureus-SMITH (GC 4543): 0.5 µg/mL (≈ 0.361 µM)
Staphylococcus sp.; [1]
  MIC Staphylococcus aureus-SMITH (GC 4543): 0.5 µg/mL (≈ 0.361 µM)
  MIC Staphylococcus haemolyticus (GC 4546): 0.5 µg/mL (≈ 0.361 µM)
  MIC Coagulase Negative Staphylococcus (GC 4547): 4 µg/mL (≈ 2.89 µM)
  MIC Coagulase Negative Staphylococcus (GC 4548): 4 µg/mL (≈ 2.89 µM)
  MIC Coagulase Negative Staphylococcus (GC 4549): 4 µg/mL (≈ 2.89 µM)
  MIC Coagulase Negative Staphylococcus (GC 4551): 8 µg/mL (≈ 5.78 µM)
  MIC Coagulase Negative Staphylococcus (GC 6257): 2 µg/mL (≈ 1.45 µM)
Staphylococcus sp.; strain GC 4544
  MIC Staphylococcus aureus (GC 4544): 0.5 µg/mL (≈ 0.361 µM)
Staphylococcus sp.; strain GC 4545
  MIC Staphylococcus aureus (GC 4545): 0.5 µg/mL (≈ 0.361 µM)
Staphylococcus sp.
  MIC Staphylococcus haemolyticus (GC 4546): 0.5 µg/mL (≈ 0.361 µM)
  MIC Coagulase Negative Staphylococcus (GC 4547): 4 µg/mL (≈ 2.89 µM)
  MIC Coagulase Negative Staphylococcus (GC 4548): 4 µg/mL (≈ 2.89 µM)
  MIC Coagulase Negative Staphylococcus (GC 4549): 4 µg/mL (≈ 2.89 µM)
  MIC Coagulase Negative Staphylococcus (GC 4551): 8 µg/mL (≈ 5.78 µM)
  MIC Coagulase Negative Staphylococcus (GC 6257): 2 µg/mL (≈ 1.45 µM)
Streptococcus sp.
  MIC Streptococcus agalactiae (GC 4564): 0.5 µg/mL (≈ 0.361 µM)
  MIC Streptococcus pneumoniae (GC 1894): 0.12 µg/mL (≈ 0.0867 µM)
  MIC Streptococcus pneumoniae (GC 4565): 0.12 µg/mL (≈ 0.0867 µM)
  MIC Streptococcus pneumonine (ATCC 6301): 0.12 µg/mL (≈ 0.0867 µM)
  MIC Streptococcus pyogenes (GC 4563): 0.12 µg/mL (≈ 0.0867 µM)
Escherichia coli
  MIC Escherichia coli (ATCC 25922): >0.5 µg/mL
  MIC Escherichia coli (GC 4559): >0.5 µg/mL
  MIC Escherichia coli (GC 4560): 0.5 µg/mL (≈ 0.361 µM)
